From patent US9951041B2, “Crystalline C21H22Cl2N4O2 malonate” (BIOMED VALLEY DISCOVERIES, INC., priority 2015, dated 2018)
Converted amounts (≈) assume the structure as drawn.

Columns and labels:
[1] = Aqueous dissolution/solubility in fasting state simulated intestinal fluid (FaSSIF) pH 6.5 after 30 min in FaSSGF; assay type: physicochemical; details: pH 6.5 FaSSIF buffer, after 30 min FaSSGF
Experimental: After 30 minutes, the samples were removed from FaSSGF, placed in fasting state simulated intestinal fluid (FaSSIF) pH 6.5, with shaking, for an additional 5 hours.

physchem = details: for Conc (solubility): pH 1.6 FaSSGF buffer, ambient temperature, shaken
From the text: Samples of 4-(5-Chloro-2-isopropylaminopyridin-4-yl)-1H-pyrrole-2-carboxylic acid [1-(3-chlorophenyl)-2-hydroxyethyl]amide Form C and 4-(5-Chloro-2-isopropylaminopyridin-4-yl)-1H-pyrrole-2-carboxylic acid [1-(3-chlorophenyl)-2-hydroxyethyl]amide malonate Form A were each shaken at ambient temperature in fasting state simulated gastric fluid (FaSSGF) pH 1.6 for 30. Concentration of 4-(5-Chloro-2-isopropylaminopyridin-4-yl)-1H-pyrrole-2-carboxylic acid [1-(3-chlorophenyl)-2-hydroxyethyl]amide was measured at 5, 15 and 30 minutes.

[2] = Pharmacokinetic evaluation in male beagles, two-way cross-over, oral gavage; assay type: in vivo
From the text: […]. […] […]

[3] = pH 1.6, fassgf or other biorelevant, thermodynamic from solid

| solubility at 10 min ([1]; fasting state simulated intestinal fluid (FaSSIF), thermodynamic from solid, 10 min, read-out: Conc (solubility)) [µg/mL] | solubility at 30 min ([1]; fasting state simulated intestinal fluid (FaSSIF), thermodynamic from solid, 30 min, read-out: Conc (solubility)) [µg/mL] | solubility at 60 min ([1]; fasting state simulated intestinal fluid (FaSSIF), thermodynamic from solid, 60 min, read-out: Conc (solubility)) [µg/mL] | solubility at 90 min ([1]; fasting state simulated intestinal fluid (FaSSIF), thermodynamic from solid, 90 min, read-out: Conc (solubility)) [µg/mL] | solubility at 120 min ([1]; fasting state simulated intestinal fluid (FaSSIF), thermodynamic from solid, 120 min, read-out: Conc (solubility)) [µg/mL] | solubility at 180 min ([1]; fasting state simulated intestinal fluid (FaSSIF), thermodynamic from solid, 180 min, read-out: Conc (solubility)) [µg/mL] | solubility at 270 min ([1]; fasting state simulated intestinal fluid (FaSSIF), thermodynamic from solid, 270 min, read-out: Conc (solubility)) [µg/mL] | solubility at 300 min ([1]; fasting state simulated intestinal fluid (FaSSIF), thermodynamic from solid, 300 min, read-out: Conc (solubility)) [µg/mL] | solubility at 5 min (physchem; [3]) [µg/mL] | solubility at 15 min (physchem; [3]) [µg/mL] | solubility at 30 min (physchem; [3]) [µg/mL] | coefficient of variation (CV) of average area under the curve (AUC) ([2]; male, beagle, dog, in vivo, po, 5 mg/kg) [%] | Compound | Conc (solubility) ([1]; 30 min) [µg/mL] | Conc (solubility) ([1]; 120 min) [µg/mL] | Conc (solubility) ([1]; 270 min) [µg/mL] | Conc (solubility) ([1]; 300 min) [µg/mL] | Conc (solubility) (physchem; 15 min) [µg/mL] | Conc (solubility) (physchem; 30 min) [µg/mL] | coefficient of variation (CV) of average area under the curve (AUC) ([2]; male beagles, single dose 5 mg/kg by oral gavage, plasma 0-24 hours) [%] |
| --- | --- | --- | --- | --- | --- | --- | --- | --- | --- | --- | --- | --- | --- | --- | --- | --- | --- | --- | --- |
| 63.3 (≈ 146 µM) | 110 (≈ 254 µM) | 114 (≈ 263 µM) | 115 (≈ 266 µM) | 110 (≈ 254 µM) | 110 (≈ 255 µM) | 116 (≈ 267 µM) | 115 (≈ 266 µM) | 381 (≈ 878 µM) | 385 (≈ 889 µM) | 369 (≈ 851 µM) | 50 | CC(C)Nc1cc(-c2c[nH]c(C(=O)N[C@H](CO)c3cccc(Cl)c3)c2)c(Cl)cn1 [Malonate Form A, 4-(5-Chloro-2-isopropylaminopyridin-4-yl)-1H-pyrrole-2-carboxylic acid [1-(3-chlorophenyl)-2-hydroxyethyl]amide malonate Form A] | – | – | – | – | – | – | – |
| – | – | – | – | – | – | – | – | – | – | – | – | CC(C)Nc1cc(-c2c[nH]c(C(=O)NC(CO)c3cccc(Cl)c3)c2)c(Cl)cn1 (stereo not shown) [Form C, 4-(5-Chloro-2-isopropylaminopyridin-4-yl)-1H-pyrrole-2-carboxylic acid [1-(3-chlorophenyl)-2-hydroxyethyl]amide Form C] | 169.89 | 332.68 | 128.38 | 154.70 | 101.35 | 136.97 | 39 |
